Common to all, as to format: in vivo
For experiment [1], the system named is gastrointestinal nematodes. Put plainly: Sheep Test II: nematode recovery at necropsy, controlled test efficacy. Conditions: for Mean Ct., Abomasum Haemonchus / Mean Ct., Abomasum Ostertagia / Mean Ct., Large Intest. Trichuris / Mean Ct., Small Intest. Nematodirus / Mean Ct., Small Intestine Trichostrongylus: group mean; for Mean Ct., Abomasum Haemonchus / Mean Ct., Abomasum Ostertagia / Mean Ct., Large Intest. Trichuris / Mean Ct., Small Intest. Nematodirus / Mean Ct., Small Intestine Trichostrongylus / Worm Counts, Abomasum Haemonchus / Worm Counts, Abomasum ostertagia / Worm Counts, Large Intest. Trichuris / Worm Counts, Small Intest. Nematodirus / Worm Counts, Small Intestine Trichostrongylus: necropsy seven days following treatment; for Worm Counts, Abomasum Haemonchus / Worm Counts, Abomasum ostertagia / Worm Counts, Large Intest. Trichuris / Worm Counts, Small Intest. Nematodirus / Worm Counts, Small Intestine Trichostrongylus: individual sheep. Here is the method: Sheep naturally infected with a variety of gastrointestinal nematodes are purchased from local sources and are transported to the test site. The animals are housed in a manner to preclude further infection by nematode larvae. The animals are evaluated for the presence of adequate nematode burdens by performing a standard fecal egg per gram (EPG) count. Eggs are differentiated into the following groups: trichostrongyle (strongyle), Strongyloides, Trichuris, or Nematodiris. Only sheep judged by the study parasitologist to have adequate nematode infections are retained as test subjects. The sheep are fed good quality hay (no concentrated rations) and water ad libitum. Following a five day acclimation period, the sheep are randomly assigned by EPG count into the following treatment groups: Groups 1-9, various anthelmintic compounds of the present invention (test compound) dissolved in DMSO: […] Group 11, non-treated Negative control (DMSO only). The first replicate of 1 I animals is randomly assigned to groups 1-1; the second replicate of 11 animals is randomly assigned to groups 1-11; and the third replicate of 11 animals is randomly assigned to groups 1-1. Thus 11 groups of 3 animals each are created. The placebo (DMSO), the commercially available drug, and the test anthelmintic compounds are administered in a 3 ml volume of DMSO by subcutaneous injection using a sterile syringe fitted with a sterile needle. The site of injection is clipped and swabbed with alcohol prior to injection. The animal is adequately immobilized for injection of the placebo, commercially available drug, or experimental compound. Seven days following treatment, all the sheep are weighed and humanely slaughtered in accordance with the Guide for the Care and Use of Laboratory Animals (DHEW Publication No. 86-23). Necropsy procedures are according to Zimmerman Research SOP # […].00.01, Necropsy for Helminth Recovery, specifically for gastrointestinal nematodes. Fecal samples are taken for EPG counts during the sample collection process on this day. Nematodes are recovered, identified, and enumerated according to Zimmerman Research SOP # […].00.01. All individuals performing nematode recoveries are blinded to treatment versus control animals.

The test system of experiment [2] is gastrointestinal nematodes (trichostrongyle, Strongyloides, Trichuris, Nematodirus eggs). Put plainly: Sheep Test II: fecal egg per gram (EPG) counts. Conditions: for % Change, Strongyles EPG-5 day vs EPG-pre, Total/Mean / Strongyles EPG-5 day (22-May), Total/Mean / % Change, Strongyles EPG-7 day vs EPG-pre, Total/Mean / Strongyles EPG-7 day (24-May), Total/Mean: group mean; for % Change, Strongyles EPG-5 day vs EPG-pre, Total/Mean / Strongyles EPG-5 day (22-May), Total/Mean / Strongyles EPG-5 day (22-May): 5 days after treatment; for % Change, Strongyles EPG-7 day vs EPG-pre, Total/Mean / Strongyles EPG-7 day (24-May), Total/Mean / % Change, Strongyles EPG-7 day vs EPG-pre / Strongyles EPG-7 day (24-May): 7 days after treatment; for Strongyles EPG-5 day (22-May) / % Change, Strongyles EPG-7 day vs EPG-pre / Strongyles EPG-7 day (24-May): individual sheep. Here is the method:
Sheep naturally infected with a variety of gastrointestinal nematodes are purchased from local sources and are transported to the test site. The animals are housed in a manner to preclude further infection by nematode larvae. The animals are evaluated for the presence of adequate nematode burdens by performing a standard fecal egg per gram (EPG) count. Eggs are differentiated into the following groups: trichostrongyle (strongyle), Strongyloides, Trichuris, or Nematodiris. Only sheep judged by the study parasitologist to have adequate nematode infections are retained as test subjects.
The sheep are fed good quality hay (no concentrated rations) and water ad libitum. Following a five day acclimation period, the sheep are randomly assigned by EPG count into the following treatment groups: Groups 1-9, various anthelmintic compounds of the present invention (test compound) dissolved in DMSO: Group 10, Positive Control (commercially available ivermectin for sheep); Group 11, non-treated Negative control (DMSO only). The first replicate of 1 I animals is randomly assigned to groups 1-1; the second replicate of 11 animals is randomly assigned to groups 1-11; and the third replicate of 11 animals is randomly assigned to groups 1-1. Thus 11 groups of 3 animals each are created.
The randomization is performed on fecal samples collected 24-48 hours prior to scheduled treatment. The EPG counts are performed according to Zimmerman Research SOP # NMEPG.99.01.
The placebo (DMSO), the commercially available drug, and the test anthelmintic compounds are administered in a 3 ml volume of DMSO by subcutaneous injection using a sterile syringe fitted with a sterile needle. The site of injection is clipped and swabbed with alcohol prior to injection. The animal is adequately immobilized for injection of the placebo, commercially available drug, or experimental compound.
Following treatment, the animals are observed at hourly intervals for the first 8 hours, then daily until necropsy. They are housed in a manner to prevent further nematode infections.
On the fifth day following treatment, fecal samples are obtained from each animal, properly labeled and used for EPG counts.
Seven days following treatment, all the sheep are weighed and humanely slaughtered in accordance with the Guide for the Care and Use of Laboratory Animals (DHEW Publication No. 86-23). Necropsy procedures are according to Zimmerman Research SOP # NCRGIH.00.01, Necropsy for Helminth Recovery, specifically for gastrointestinal nematodes. Fecal samples are taken for EPG counts during the sample collection process on this day.

The subject of experiment [3] is Caenorhabditis elegans. The experiment in a line: HTS runs (initial and follow-up): mOD, % Run and visual score (Table 3). Here is the method:
The nematicidal activity of anthelmintic Compositions 48-118 were determined in accordance with the procedure outlined in Example 2.

Where [4] appears, read: Ivermectin 200 mcg/kg, controlled test procedure.

Several values for one entry are separate records, joined by “and”; a condition that tells them apart may be missing. Equal values may be shown once.

For the molecule 22,23-dihydroavermectin B1 [ivermectin], in experiment [1] (setting [4]), the “% Efficacy, Abomasum Haemonchus” value was 86%; the “% Efficacy, Abomasum ostertagia” value came to 100%; the “% Efficacy, Small Intest. Nematodirus” value is 98%; the “% Efficacy, Small Intestine Trichostrongylus” value worked out at 100%. In experiment [1] (Ivermectin 200 mcg/kg), the “Mean Ct., Abomasum Haemonchus” value came out at 7; the “Mean Ct., Abomasum Ostertagia” value was determined as 0; the “Mean Ct., Large Intest. Trichuris” value stood at 0; the “Mean Ct., Small Intest. Nematodirus” value was found to be 67. In experiment [1] (Ivermectin 200 mcg/kg), the “Mean Ct., Small Intestine Trichostrongylus” value was found to be 0; the “Worm Counts, Abomasum Haemonchus” value was 0 (2×) and 20; the “Worm Counts, Abomasum ostertagia” value is 0; the “Worm Counts, Large Intest. Trichuris” value is listed as 0. In addition, in experiment [1] (Ivermectin 200 mcg/kg), the “Worm Counts, Small Intest. Nematodirus” value was 100 (2×) and 0; the “Worm Counts, Small Intestine Trichostrongylus” value was 0. In experiment [2] (Ivermectin 200 mcg/kg), the “% Change, Strongyles EPG-5 day vs EPG-pre, Total/Mean” value is listed as 100.00%; the “Strongyles EPG-5 day (22-May), Total/Mean” value was determined as 0.00 EPG; the “% Change, Strongyles EPG-7 day vs EPG-pre, Total/Mean” value is 100.00%; the “Strongyles EPG-7 day (24-May), Total/Mean” value is recorded as 0.00 EPG. Besides, in experiment [2] (Ivermectin 200 mcg/kg), the “Strongyles EPG-5 day (22-May)” value is 0 EPG; the “% Change, Strongyles EPG-7 day vs EPG-pre” value is recorded as 100.00%; the “Strongyles EPG-7 day (24-May)” value amounted to 0 EPG.
As to `CCC1CCCCN1c1cc(Oc2ccc3oc4ccccc4c3c2)ncn1` (stereo not drawn) [AKC 109], in experiment [3] (Follow-up HTS Run), the “Follow-up HTS Run % Run” value was determined as 121%, the “Follow-up HTS Run Visual Score” value is on record as “L4/AD/B!” and the “Follow-up HTS Run mOD” value worked out at 163 mOD. Also, in experiment [3] (Initial HTS Run), the “Initial HTS Run % Run” value came out at 132%, the “Initial HTS Run Visual Score” value is listed as 1AD/B! and the “Initial HTS Run mOD” value came to 258 mOD. For the same molecule, the “% Efficacy, Abomasum Haemonchus” value in experiment [1] (AKC 109 .8 mg/kg, controlled test procedure) stood at 100%. Besides, in experiment [1] (AKC 109 .8 mg/kg), the “Mean Ct., Abomasum Haemonchus” value was found to be 0; the “Mean Ct., Abomasum Ostertagia” value was 690; the “Mean Ct., Large Intest. Trichuris” value amounted to 3; the “Mean Ct., Small Intest. Nematodirus” value is reported as 7120. In experiment [1] (AKC 109 .8 mg/kg), the “Mean Ct., Small Intestine Trichostrongylus” value was found to be 130; the “Worm Counts, Abomasum Haemonchus” value was 0; the “Worm Counts, Abomasum ostertagia” value is 1100 and 280; the “Worm Counts, Large Intest. Trichuris” value is 5 and 0. Besides, in experiment [1] (AKC 109 .8 mg/kg), the “Worm Counts, Small Intest. Nematodirus” value is 12020 and 2220; the “Worm Counts, Small Intestine Trichostrongylus” value was 240 and 20. Further, in experiment [2] (AKC 109 .8 mg/kg), the “% Change, Strongyles EPG-5 day vs EPG-pre, Total/Mean” value is 51.49%; the “Strongyles EPG-5 day (22-May), Total/Mean” value is 245.00 EPG; the “% Change, Strongyles EPG-7 day vs EPG-pre, Total/Mean” value was determined as 50.50%; the “Strongyles EPG-7 day (24-May), Total/Mean” value was 250.00 EPG. Also, in experiment [2] (AKC 109 .8 mg/kg), the “Strongyles EPG-5 day (22-May)” value is 360 EPG and 130 EPG; the “% Change, Strongyles EPG-7 day vs EPG-pre” value was 63.93% and 30.00%; the “Strongyles EPG-7 day (24-May)” value was 220 EPG and 280 EPG.

Source of the values: patent US20010049373A1, “Materials and methods for killing nematodes and nematode eggs” (priority 2000, published 2001).
